Reference: patent publication US20230233569A1 (Revolution Medicines, Inc., priority 2020, published 2023)

How the values were obtained:
KRAS G12C = KRAS G12C (Homo sapiens, UniProt P01116+P62937, G12C); test: Ras-Raf disruption / FRET / MOA assay (BRAF RBD); assay type: biochemical; conditions: KRAS G12C FRET data IC50, Ras-Raf disruption, with Cyclophilin A
How it was run: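 TR-FRET read-out after 1.5 h with anti-His Eu-W1024 (10 nM) and anti-GST APC (50 nM), following 3 h at 25 °C of compound (top 30 μM, 3-fold, 10 points) with 25 μM Cyclophilin A, 12.5 nM GMPPNP-loaded K-Ras G12C and 50 nM BRAF RBD; IC50 reported.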

NCI-H358 (K-Ras G12C) = test: CellTiter-Glo cell viability assay; assay type: cell-based; conditions: Homo sapiens, NCI-H358, 120 h, read-out: H358 Cell Viability assay data IC50, K-Ras G12C, 5-day treatment
How it was run: (§1)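 Direct compound addition to plated cells; 5-day exposure; ~30 min RT equilibration; CellTiter-Glo luminescence. Normalization: (sample/avg DMSO)*100; 4-parameter logistic curve fit.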

AsPC-1 (K-Ras G12D) [1] = test: CellTiter-Glo cell viability assay; assay type: cell-based; conditions: Homo sapiens, ASPC1, 120 h, read-out: AsPC-1 Cell Viability assay data IC50, K-Ras G12D, 5-day treatment
How it was run: as §1

AsPC-1 (K-Ras G12D) [2] = test: Potency assay: pERK; assay type: cell-based; conditions: Homo sapiens, ASPC1, read-out: pERK EC50
KRAS Q61H = KRAS Q61H (Homo sapiens, UniProt P01116+P62937, Q61H); test: Ras-Raf disruption / FRET / MOA assay (BRAF RBD); assay type: biochemical
How it was run: (§2)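 Compound-induced Ras–Cyclophilin A ternary complex disrupting BRAF RBD binding, read as IC50 from reduced TR-FRET ratio relative to DMSO. Final: Ras-GMPPNP 12.5 nM, BRAF RBD 50 nM, Cyclophilin A 25 μM, top compound 30 μM (3-fold, 10 points); 3 h at 25 °C, then 1.5 h with detection antibodies.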

KRAS G12V = KRAS G12V (Homo sapiens, UniProt P01116+P62937, G12V); test: Ras-Raf disruption / FRET / MOA assay (BRAF RBD); assay type: biochemical; conditions: KRAS G12V FRET data IC50, Ras-Raf disruption, with Cyclophilin A
How it was run: as §2

NRAS WT = NRAS WT (Homo sapiens, UniProt P01111+P62937); test: Ras-Raf disruption / FRET / MOA assay (BRAF RBD); assay type: biochemical
How it was run: as §2

KRAS G12D = KRAS G12D (Homo sapiens, UniProt P01116+P62937, G12D); test: Ras-Raf disruption / FRET / MOA assay (BRAF RBD); assay type: biochemical; conditions: KRAS G12D FRET data IC50, Ras-Raf disruption, with Cyclophilin A
How it was run: as §2

NRAS Q61K = NRAS Q61K (Homo sapiens, UniProt P01111+P62937, Q61K); test: Ras-Raf disruption / FRET / MOA assay (BRAF RBD); assay type: biochemical
How it was run: as §2

NRAS Q61R = NRAS Q61R (Homo sapiens, UniProt P01111+P62937, Q61R); test: Ras-Raf disruption / FRET / MOA assay (BRAF RBD); assay type: biochemical
How it was run: as §2

NRAS G12C = NRAS G12C (Homo sapiens, UniProt P01111+P62937, G12C); test: Ras-Raf disruption / FRET / MOA assay (BRAF RBD); assay type: biochemical; conditions: NRAS G12C FRET data IC50, NRAS G12C
How it was run: as §2

KRAS WT = KRAS WT (Homo sapiens, UniProt P01116+P62937); test: Ras-Raf disruption / FRET / MOA assay (BRAF RBD); assay type: biochemical; conditions: KRAS WT FRET data IC50, Ras-Raf disruption, with Cyclophilin A
How it was run: as §2

KRAS G12S = KRAS G12S (Homo sapiens, UniProt P01116+P62937, G12S); test: Ras-Raf disruption / FRET / MOA assay (BRAF RBD); assay type: biochemical; conditions: KRAS G12S FRET data IC50, Ras-Raf disruption, with Cyclophilin A
How it was run: as §2

KRAS G13D = KRAS G13D (Homo sapiens, UniProt P01116+P62937, G13D); test: Ras-Raf disruption / FRET / MOA assay (BRAF RBD); assay type: biochemical; conditions: KRAS G13D FRET data IC50, Ras-Raf disruption, with Cyclophilin A
How it was run: as §2

KRAS G13C = KRAS G13C (Homo sapiens, UniProt P01116+P62937, G13C); test: Ras-Raf disruption / FRET / MOA assay (BRAF RBD); assay type: biochemical; conditions: KRAS G13C FRET data IC50, Ras-Raf disruption, with Cyclophilin A
How it was run: as §2

Sequence of NRAS Q61K (P01111 whole entry Q61K): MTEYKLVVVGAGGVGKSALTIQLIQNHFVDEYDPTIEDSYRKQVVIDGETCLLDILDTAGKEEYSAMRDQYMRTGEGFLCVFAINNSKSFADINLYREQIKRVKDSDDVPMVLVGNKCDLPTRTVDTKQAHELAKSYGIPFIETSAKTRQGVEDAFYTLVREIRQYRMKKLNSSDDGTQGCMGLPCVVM
Sequence of NRAS Q61K (P62937 whole entry): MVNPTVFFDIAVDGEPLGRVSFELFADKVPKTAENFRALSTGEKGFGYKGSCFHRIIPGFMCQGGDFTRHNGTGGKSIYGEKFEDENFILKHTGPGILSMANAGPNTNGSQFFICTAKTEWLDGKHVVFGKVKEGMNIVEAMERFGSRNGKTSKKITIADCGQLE
Sequence of NRAS WT (P01111 whole entry): as the sequence (P01111 whole entry Q61K) above, with K61Q counted along it
Sequence of NRAS WT (P62937 whole entry): as the sequence (P62937 whole entry) above
Sequence of KRAS Q61H (P01116 1-169 isoform P01116-2 Q61H limits assumed): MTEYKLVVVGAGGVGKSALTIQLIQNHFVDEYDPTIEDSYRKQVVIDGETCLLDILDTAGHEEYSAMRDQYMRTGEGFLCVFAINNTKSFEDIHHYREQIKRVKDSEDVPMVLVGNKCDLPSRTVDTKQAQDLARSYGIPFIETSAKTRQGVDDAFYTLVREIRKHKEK
Sequence of KRAS Q61H (P62937 whole entry): as the sequence (P62937 whole entry) above
Sequence of KRAS WT (P01116 1-169 isoform P01116-2 limits assumed): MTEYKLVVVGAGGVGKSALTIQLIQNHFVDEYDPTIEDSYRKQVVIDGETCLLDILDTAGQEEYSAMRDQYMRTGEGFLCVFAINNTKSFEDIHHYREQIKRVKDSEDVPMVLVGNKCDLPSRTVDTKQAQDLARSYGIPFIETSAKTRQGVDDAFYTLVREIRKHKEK
Sequence of KRAS WT (P62937 whole entry): as the sequence (P62937 whole entry) above
Sequence of KRAS G12C (P01116 1-169 isoform P01116-2 G12C limits assumed): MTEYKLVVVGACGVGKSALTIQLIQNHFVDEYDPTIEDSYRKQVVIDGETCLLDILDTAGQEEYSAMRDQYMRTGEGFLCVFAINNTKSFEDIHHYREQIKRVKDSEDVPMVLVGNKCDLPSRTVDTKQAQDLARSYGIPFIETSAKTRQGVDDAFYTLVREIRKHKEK
Sequence of KRAS G12C (P62937 whole entry): as the sequence (P62937 whole entry) above
Sequence of NRAS G12C (P01111 whole entry G12C): as the sequence (P01111 whole entry Q61K) above, with G12C, K61Q counted along it
Sequence of NRAS G12C (P62937 whole entry): as the sequence (P62937 whole entry) above
Sequence of NRAS Q61R (P01111 whole entry Q61R): as the sequence (P01111 whole entry Q61K) above, with K61R counted along it
Sequence of NRAS Q61R (P62937 whole entry): as the sequence (P62937 whole entry) above
Sequence of KRAS G12D (P01116 1-169 isoform P01116-2 G12D limits assumed): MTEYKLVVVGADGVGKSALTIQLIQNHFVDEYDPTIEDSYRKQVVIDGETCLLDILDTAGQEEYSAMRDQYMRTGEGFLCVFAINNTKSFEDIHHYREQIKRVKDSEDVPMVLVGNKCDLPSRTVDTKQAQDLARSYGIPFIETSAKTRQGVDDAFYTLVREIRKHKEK
Sequence of KRAS G12D (P62937 whole entry): as the sequence (P62937 whole entry) above
Sequence of KRAS G12V (P01116 1-169 isoform P01116-2 G12V limits assumed): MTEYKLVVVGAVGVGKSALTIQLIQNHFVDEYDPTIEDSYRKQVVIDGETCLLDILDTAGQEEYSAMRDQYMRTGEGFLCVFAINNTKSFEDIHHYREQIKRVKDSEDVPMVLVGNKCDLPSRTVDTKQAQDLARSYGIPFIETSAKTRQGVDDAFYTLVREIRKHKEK
Sequence of KRAS G12V (P62937 whole entry): as the sequence (P62937 whole entry) above
Sequence of KRAS G13D (P01116 1-169 isoform P01116-2 G13D limits assumed): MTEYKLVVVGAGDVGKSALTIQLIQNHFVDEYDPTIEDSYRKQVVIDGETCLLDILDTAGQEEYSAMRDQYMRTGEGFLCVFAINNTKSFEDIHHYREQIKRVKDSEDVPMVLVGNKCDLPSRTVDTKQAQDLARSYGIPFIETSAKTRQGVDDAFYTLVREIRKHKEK
Sequence of KRAS G13D (P62937 whole entry): as the sequence (P62937 whole entry) above
Sequence of KRAS G12S (P01116 1-169 isoform P01116-2 G12S limits assumed): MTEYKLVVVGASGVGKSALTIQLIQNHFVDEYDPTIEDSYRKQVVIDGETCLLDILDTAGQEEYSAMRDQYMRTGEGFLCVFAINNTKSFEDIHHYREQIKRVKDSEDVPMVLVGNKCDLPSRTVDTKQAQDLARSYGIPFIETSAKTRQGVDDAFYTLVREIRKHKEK
Sequence of KRAS G12S (P62937 whole entry): as the sequence (P62937 whole entry) above
Sequence of KRAS G13C (P01116 1-169 isoform P01116-2 G13C limits assumed): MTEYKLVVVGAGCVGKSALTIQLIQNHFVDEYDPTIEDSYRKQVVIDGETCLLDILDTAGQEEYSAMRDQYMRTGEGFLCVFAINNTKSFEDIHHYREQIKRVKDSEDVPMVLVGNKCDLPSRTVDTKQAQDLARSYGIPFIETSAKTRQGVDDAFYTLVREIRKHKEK
Sequence of KRAS G13C (P62937 whole entry): as the sequence (P62937 whole entry) above

Compound | IC50 (KRAS G12C) [nM] | IC50 (NCI-H358 (K-Ras G12C)) [nM] | IC50 (AsPC-1 (K-Ras G12D) [1]) [nM] | EC50 (AsPC-1 (K-Ras G12D) [2]) [nM] | IC50 (KRAS Q61H) [nM] | IC50 (KRAS G12V) [nM] | IC50 (NRAS WT) [nM] | IC50 (KRAS G12D) [nM] | IC50 (NRAS Q61K) [nM] | IC50 (NRAS Q61R) [nM] | IC50 (NRAS G12C) [nM] | IC50 (KRAS WT) [nM] | IC50 (KRAS G12S) [nM] | IC50 (KRAS G13D) [nM] | IC50 (KRAS G13C) [nM]
CC[C@@H]1N[C@@H]1C(=O)N(C)CC(=O)N(C)[C@H](C(=O)N[C@H]1Cc2cc(O)cc(c2)-c2ccc3c(c2)c(c(-c2cccnc2[C@H](C)OC)n3CC)CC(C)(C)COC(=O)[C@@H]2CCCN(N2)C1=O)C(C)C [Example 263] | < 10 | 10 to 100 | 100 to 1000 | < 5000 | 10 to 100 | 10 to 100 | 10 to 100 | 10 to 100 | 100 to 1000 | 100 to 1000 | < 10 | 10 to 100 | 10 to 100 | 10 to 100 | 10 to 100
CCn1c(-c2cccnc2[C@H](C)OC)c2c3cc(ccc31)-c1cc(O)cc(c1)C[C@H](NC(=O)[C@H](C(C)C)N(C)C(=O)CN(C)C(=O)[C@@H]1N[C@@H]1C(C)C)C(=O)N1CCC[C@H](N1)C(=O)OCC(C)(C)C2 [Example 264] | < 10 | 10 to 100 | 100 to 1000 | < 5000 | < 10 | 10 to 100 | < 10 | 10 to 100 | 10 to 100 | 10 to 100 | < 10 | < 10 | < 10 | 10 to 100 | 10 to 100
CCn1c(-c2cccnc2[C@H](C)OC)c2c3cc(ccc31)-c1cc(O)cc(c1)C[C@H](NC(=O)[C@H](C(C)C)N(C)C(=O)CN(C)C(=O)[C@H]1N[C@H]1C(C)C)C(=O)N1CCC[C@H](N1)C(=O)OCC(C)(C)C2 [Example 265] | 10 to 100 | 10 to 100 | 100 to 1000 | < 5000 | 10 to 100 | 10 to 100 | 10 to 100 | 10 to 100 | 100 to 1000 | 100 to 1000 | 10 to 100 | 10 to 100 | 10 to 100 | 10 to 100 | 10 to 100
CCn1c(-c2cccnc2[C@H](C)OC)c2c3cc(ccc31)-c1cc(O)cc(c1)C[C@H](NC(=O)[C@H](C(C)C)N(C)C(=O)CN(C)C(=O)[C@H]1CN1CCCOC(C)=O)C(=O)N1CCC[C@H](N1)C(=O)OCC(C)(C)C2 (stereo partly drawn) [Example 266] | < 10 | < 10 | 100 to 1000 | < 5000 | 10 to 100 | 100 to 1000 | 100 to 1000 | 100 to 1000 | 100 to 1000 | 100 to 1000 | < 10 | 100 to 1000 | 10 to 100 | 100 to 1000 | 10 to 100
CCn1c(-c2cccnc2[C@H](C)OC)c2c3cc(ccc31)-c1cc(O)cc(c1)C[C@H](NC(=O)[C@H](C(C)C)N(C)C(=O)CN(C)C(=O)[C@H]1CN1CC(=O)N(C)C)C(=O)N1CCC[C@H](N1)C(=O)OCC(C)(C)C2 (stereo partly drawn) [Example 270] | < 10 | 10 to 100 | 100 to 1000 | < 5000 | 100 to 1000 | 100 to 1000 | 100 to 1000 | 100 to 1000 | 1000 to 10000 | 1000 to 10000 | < 10 | 100 to 1000 | 10 to 100 | 100 to 1000 | 10 to 100
CCn1c(-c2cccnc2[C@H](C)OC)c2c3cc(ccc31)-c1cc(O)cc(c1)C[C@H](NC(=O)[C@H](C(C)C)N(C)C(=O)CN(C)C(=O)[C@H]1CN1CCCC#N)C(=O)N1CCC[C@H](N1)C(=O)OCC(C)(C)C2 (stereo partly drawn) [Example 273] | < 10 | < 10 | 100 to 1000 | < 5000 | 10 to 100 | 10 to 100 | 10 to 100 | 100 to 1000 | 100 to 1000 | 100 to 1000 | < 10 | 10 to 100 | 10 to 100 | 100 to 1000 | 10 to 100
